Test results: patent publication EP4775579A1, “BERBERRUBINE-RELATED COMPOUND” (Mitogenic Co., Ltd., priority 2023, dated 2025)
Structures can show the parent of a compound that is named as a salt.

Legend:
C2C12 cells = assay: Oxygen consumption rate (OCR) of C2C12 cells, extracellular flux analyzer (basal respiration, ATP synthesis, maximal respiration); format: cell-based; conditions: 30 µM
Method: A DMSO solution of 3.5 mg/mL of quinoid-type berberrubine was added to C2C12 cells in Dulbecco's modified Eagle (DMEM) medium containing 10% fetal bovine serum (FBS), penicillin, and streptomycin, such that the final concentration was 30 µM (FIG. 4A).
As a control, the same amount of water was added to the C2C12 cells described above.
During this period, the oxygen consumption rate (OCR) of the C2C12 cells was measured over time using an extracellular flux analyzer.
The OCR during the period between the addition of the ATP synthase inhibitor and the addition of the uncoupling agent, the OCR during the period between the addition of the uncoupling agent and the addition of the mitochondrial complex inhibitor, and the OCR in the period after the addition of the mitochondrial complex inhibitor each correlate with the amount of basal respiration, ATP synthesis, and maximal respiration in mitochondria. Thus, the amount of basal respiration, ATP synthesis, and maximal respiration in mitochondria were evaluated using OCR at the points of 30, 60, and 90 minutes as indicators.

[1] = test system: mitochondrial respiratory chain supercomplexes; assay: Formation of mitochondrial respiratory chain supercomplexes, FRET between GFP-complex I and RFP-complex IV in C2C12 cells; format: cell-based; conditions: 3, 10, 30, or 60 µM; 24 hours after addition
Method: At the point of 24 hours after addition, formation of a mitochondrial respiratory chain supercomplex was detected by detecting FRET between GFP and RFP, resulting from the association of complex I and complex IV.

[2] = test system: Mouse fetal fibroblast (MEF) cells; assay: Tom20 immunofluorescence staining, content of mitochondria in MEF cells; format: cell-based; conditions: 30 µM, 48 hours after addition
Method: (§1) 48 hours after addition, Tom20, which is a mitochondrial outer membrane protein, was detected by immunofluorescence staining. For the detection of Tom20, the anti-Tom20 antibody (Santa Cruz, sc-11415) was used.

PINK1-knockout MEF cells = assay: Tom20 immunofluorescence staining, content of mitochondria in PINK1-knockout MEF cells (Parkinson's disease model); format: cell-based, Mouse; conditions: 30 µM, 48 hours after addition
Method: as §1
Note that PINK1 is the gene responsible for Parkinson's disease, and PINK1 deficiency causes mitochondrial dysfunction associated with Parkinson's disease. Therefore, PINK1-knockout MEF cells are used as a model for patients affected by Parkinson's disease.

HeLa cells = assay: Cancer cell growth, trypan blue cell count; format: cell-based, human; conditions: 30 µM; 24, 48, and 72 hours after addition
Method: Cells were collected at 24, 48, and 72 hours after addition and stained with trypan blue, and the number of cells were measured. Note that the HeLa cells are cell lines derived from human uterus cancer cells and are widely used as model cells for cancer.

tau proteins = assay: Western blotting of tau proteins in Neuro2A cells with aggregated tau; format: cell-based; conditions: 30 µM, 8 hours of culturing
Method: Neuro2A cells were introduced with ΔN-P301Ltau-CRY2olig by transfection. One day after introduction, nocodazole was added to stop the cell cycle, and subsequent blue light irradiation for 24 hours induced the aggregation of tau proteins in the cells.
After 8 hours of culturing after addition, the tau proteins in the cells were detected by means of Western blotting using an antibody against phosphorylated Tau at position S396 (pS396), an antibody against phosphorylated Tau at position S422 (pS422), an antibody against full length Tau (JM), and an antibody against the C-terminal region of Tau (tauC). The tau proteins were detected at around 100 kDa.

mouse spermatozoa = assay: Sperm motility and MitoTracker staining after oral administration to mice; format: in vivo
Method: Male C57BL/6NJcl mice aged 9 to 10 weeks were orally administered 1.25% agar containing 0.35 mg/mL of quinoid-type berberrubine or 1.25% agar not containing quinoid-type berberrubine for 2 weeks. The oral administration was performed by placing a container containing this agar in a cage with the mice, such that the mice could constantly ingest this agar from the container (subsequent oral administration of agar to mice was performed in the same manner). At 20 weeks of age, the mice were anesthetized isoflurane (KANTO KAGAKU), euthanized by cervical dislocation, and had their testes and epididymis removed. The removed epididymis was cut into pieces with scissors in 1 mL of phosphate buffered saline (PBS) and then placed at room temperature for 1 hour, thereby preparing sperm samples. 20 µL of the sample was transferred to a glass bottom dish, and mitochondria and nuclei were stained by MitoTracker (manufactured by Thermo Fisher Scientific) and Hoechst (manufactured by NACALAI TESQUE, INC.), respectively.

mice irradiated with UV = assay: Skin of UV-irradiated mice, visual observation; format: in vivo; conditions: oral, 1.25% agar containing 0.35 mg/mL for 2 months; UV 3 times a week for 8 weeks
Method: Male C57BL/6NJcl mice aged 8 weeks were orally administered 1.25% agar containing 0.35 mg/mL of quinoid-type berberrubine or 1.25% agar not containing quinoid-type berberrubine (control) for 2 months. The skin of the mice during the same period was irradiated with UV 3 times a week for 8 weeks. The irradiation dose was 1 mW/cm^2 for 70 seconds (70 mJ/cm^2) in the first week, 1 mW/cm^2 for 80 seconds (80 mJ/cm^2) in the second week, 1 mW/cm^2 for 90 seconds (90 mJ/cm^2) in the third week, and 1 mW/cm^2 for 100 seconds (100 mJ/cm^2) in the fourth week and thereafter. At the end of the same period, the skin of the mice was visually observed.

mouse visceral fat = assay: Accumulation of visceral fat in mice; format: in vivo; conditions: male mice aged 50 weeks; oral, 1.25% agar containing 0.35 mg/mL for 2 months
Method: Male C57BL/6NJcl mice aged 50 weeks were orally administered 1.25% agar containing 0.35 mg/mL of quinoid-type berberrubine or 1.25% agar not containing quinoid-type berberrubine (control) for 2 months. At the end of the period, accumulation of visceral fat in the mice was observed.

brown fat cells = assay: TMRM/Hoechst fluorescence microscopy of primary cultured brown fat cells; format: cell-based, mice; conditions: 30 µM, 48 hours after addition
Method: Brown fat cells removed from fetal C57BL/6NJcl mice were cut into pieces with scissors in an isolation buffer solution (0.123 M of sodium chloride, 5 mM of glucose, 5 mM of potassium chloride, 1.3 mM of calcium chloride, 100 mM of HEPES-NaOH (pH 7.4), 4% BSA) containing 1 mg/mL of collagenase, and warmed in a water bath at 37 °C for 30 minutes. After removal of aggregates using a cell strainer, the cells were collected by centrifugation at 1000 x g for 5 minutes and suspended in a DMEM medium containing 20% FBS, thereby preparing primary cultured cells of the brown fat cells.
Moreover, as a control, the same amount of DMSO as in the DMSO solution of quinoid-type berberrubine was added to the primary cultured cells.
The primary cultured cells cultured for 48 hours after addition had the nuclei stained with Hoechst (manufactured by NACALAI TESQUE, INC.) and mitochondria stained with tetramethylrhodamine methyl ester (TMRM, manufactured by Thermo Fisher Scientific) and then were observed under a fluorescence microscope (magnification: 60x).

C57BL/6N24 mice = assay: M-mode echocardiography in aged mice; format: in vivo; conditions: mice from 24 months of age, 12 weeks after start; adduct 0.5 mg/mL in drinking water; quinoid-type 0.5 mg/mL in diet
Text: The results of echocardiography using the M-mode echocardiography technique on the mice 12 weeks after the start of administration are shown in FIG. 16.
The results of echocardiography using the M-mode echocardiography technique on the mice 12 weeks after the start of administration are shown in FIG. 20.

[3] = test system: cardiac failure and myocardial fibrosis markers; assay: Quantitative RT-PCR of cardiac failure and myocardial fibrosis markers in aged mice; format: in vivo; conditions: mice from 24 months of age, 12 weeks after start; adduct 0.5 mg/mL in drinking water; quinoid-type 0.5 mg/mL in diet
Text: Moreover, the results of quantifying cardiac failure and myocardial fibrosis markers in the mice 12 weeks after the start of administration by means of quantitative RT-PCR are shown in FIG. 18.
Moreover, the results of quantifying cardiac failure and myocardial fibrosis markers in the mice 12 weeks after the start of administration by means of quantitative RT-PCR are shown in FIG. 21.

mitochondrial mRNA = assay: Quantitative RT-PCR of mitochondrial mRNA in aged mice; format: in vivo; conditions: mice from 24 months of age, 12 weeks after start; adduct 0.5 mg/mL in drinking water; quinoid-type 0.5 mg/mL in diet
Text: Moreover, the results of quantifying the mRNA expression of mitochondria in the mice 12 weeks after the start of administration by means of quantitative RT-PCR are shown in FIG. 19.
Moreover, the results of quantifying the expression of Mitol which is mRNA of mitochondria in the mice 12 weeks after the start of administration by means of quantitative RT-PCR are shown in FIG. 22.

[4] = test system: mitochondria isolated from cardiomyocytes of mice; assay: OCR of mitochondria isolated from cardiomyocytes of treated mice, flux analyzer; format: in vivo; conditions: 12 weeks after start; adduct 0.5 mg/mL in drinking water; quinoid-type 0.5 mg/mL in diet
Text: Moreover, mitochondria were isolated from cardiomyocytes of mice 12 weeks after the start of administration using a standard method. 23A and 23B.

[5] = literature value; cited from earlier work

Text for physchem: Determine the minimum amount (mL) of the solvent that can completely dissolve the berberrubine-related compound by changing the volume of the solvent, as appropriate. Calculate the solubility (g/mL) of each berberrubine-related compound in each solvent from the used berberrubine-related compound (1 g) and the minimum volume (mL) of the solvent.
By changing the volume of the solvent, as appropriate, the minimum amount (mL) of the solvent that can completely dissolve the berberrubine-related compound was determined. From the used berberrubine-related compound (1 g) and the minimum volume (mL) of the solvent, the solubility (g/mL) of each berberrubine-related compound in each solvent was determined.

For `COc1ccc2cc3n(cc-2c1=O)CCc1cc2c(cc1-3)OCO2` [quinoid-type berberrubine, 10-methoxy-5,6-dihydro-9H-[1,3]dioxolo[4,5-g]isoquinolino [3,2-a]isoquinolin-9-one], the “basal respiration in mitochondria, enhancement compared to the controls” value (C2C12 cells; 24 hours after addition, OCR at 30 minutes) was “about 4 fold”, the “ATP synthesis in mitochondria, enhancement compared to the controls” value (C2C12 cells; 24 hours after addition, OCR at 60 minutes) was “about 4 fold” and the “maximal respiration in mitochondria, enhancement compared to the controls” value (C2C12 cells; 24 hours after addition, OCR at 90 minutes) was “about 4 fold”. The “ATP synthesis in mitochondria, compared to the addition of the berberrubine acetic acid adduct” value (C2C12 cells; C2C12 cells) was “about 2.5 fold”, the “basal respiration in mitochondria, compared to the addition of the berberrubine acetic acid adduct” value (C2C12 cells; C2C12 cells) was “about 2.5 fold” and the “maximal respiration in mitochondria, compared to the addition of the berberrubine acetic acid adduct” value (C2C12 cells; C2C12 cells) was “about 2.6 fold”. For the same compound, the “formation of mitochondrial respiratory chain supercomplexes (FRET between GFP and RFP)” value [1] was “promoted the formation of mitochondrial respiratory chain supercomplexes in a concentration-dependent manner”, the “content of mitochondria in the cells compared to the control” value [2] was “increased” and the “content of mitochondria in the cells” value (PINK1-knockout MEF cells) was “increased”. For the same compound, the “ratio of the number of HeLa cells after administration with respect to the number of HeLa cells in the control” value (HeLa cells) was “decreased over time”, the “expression level of full-length Tau” value (tau proteins) was “no significant changes” and the “ratio of the expression level of phosphorylated Tau at position S396 with respect to that of full-length Tau (pS396-tau/JM), reduction compared to the control” value (tau proteins) was “about 35%”. The “ratio of the expression level of phosphorylated Tau at position S422 with respect to that of full-length Tau (pS422-tau/JM), reduction compared to the control” value (tau proteins) was “no significant changes”, the “number of spermatozoa in which mitochondria were stained with MitoTracker, increase compared to the control” value (mouse spermatozoa; 1.25% agar containing 0.35 mg/mL for 2 weeks) was “about twofold” and the “sperm motility compared to the control” value (mouse spermatozoa; quinoid-type: 1.25% agar containing 0.35 mg/mL for 2 weeks, adduct: 2 mg/mL aqueous solution) was “more actively motile”. For the same compound, the “number of wrinkles compared to mice not administered” value (mice irradiated with UV) was “fewer”, the “skin darkening compared to mice not administered” value (mice irradiated with UV) was “inhibited” and the “wrinkle depths compared to mice not administered” value (mice irradiated with UV) was “shallower”. For the same compound, the “visceral fat accumulation compared to mice not administered” value (mouse visceral fat) was “inhibited”, the “increase in amount of active mitochondria having normal membrane potential, compared to the addition of a berberrubine acetic acid adduct” value (brown fat cells) was “to a greater extent” and the “staining of mitochondria by TMRM (active mitochondria having normal membrane potential)” value (brown fat cells) was “strong staining”. The “% left ventricular fractional shortening (%FS) compared to the control” value (C57BL/6N24 mice) was “increase”, the “left ventricular ejection fraction (LVEF) compared to the control” value (C57BL/6N24 mice) was “increase” and the “left ventricular end-diastolic diameter (LVDd) compared to the control” value (C57BL/6N24 mice) was “decrease”. For the same compound, the “left ventricular end-systolic diameter (LVDs) compared to the control” value (C57BL/6N24 mice) was “decrease”, the “left ventricular filling pressure (E/e') compared to the control” value (C57BL/6N24 mice) was “decrease” and the “expression levels of cardiac failure markers (Nppa, Nppb, and Myh7) compared to the control” value [3] was “reduced”. The “expression levels of myocardial fibrosis markers (Collagen1 and Ctgf) compared to the control” value [3] was “reduced”, the “expression of Mitol compared to the control” value (mitochondrial mRNA) was “increase” and the “oxygen consumption rate (OCR) in State 2 (ADP-limited state) compared to the control” value [4] was “increased”. The “oxygen consumption rate (OCR) in State 3 (activated respiratory state) compared to the control” value [4] was “increased”, the “oxygen consumption rate (OCR) in State 3u (uncoupled state) compared to the control” value [4] was “increased” and the “oxygen consumption rate (OCR) in State 4o (oligomycin-induced state) compared to the control” value [4] was “increased”. For the same compound, the “SOLUBILITY (g/mL) OF BERBERRUBINE-RELATED COMPOUND IN 1 mL OF SOLVENT, WATER” value [5] was 0.000013 (LITERAT URE VALUE) g/mL.

`COc1ccc2cc3n(cc-2c1=O)CCc1cc2c(cc1-3)OCO2` [berberrubine acetate salt] showed a solubility at 0.5 h (physchem; methanol) of 34 mg/mL and a solubility at 0.5 h (physchem; water) of 30 mg/mL.
